Laboratory results from patent US9802897B2, “Amidopyridinol derivative or pharmaceutically acceptable salt thereof and pharmaceutical composition comprising same as active component” (Research Cooperation Foundation of Yeungnam University, priority 2013, dated 2017).
Several values for one entry are separate records, joined by “and”; a condition that tells them apart may be missing. Identical values can stand only once.

Legend:
[1] = system: VEGF-induced angiogenesis in chicken chorioallantoic membrane (CAM); assay: CAM analysis of VEGF-induced angiogenesis; assay type: in vivo; conditions: for inhibition in vivo at 0.01 nmol/CAM: Gallus gallus, 72 h, VEGF (20 ng/CAM) + Compound (0.01 nmol/CAM), number of blood vessels after 3 days, read-out: Inhibitory rates (%); for ID50 against inhibition of angiogenesis: VEGF-induced CAM angiogenesis
Method in brief: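 Fertilized chicken eggs incubated at 37° C, 55% humidity; on day 10 a window was opened and a cortisone acetate (3 mg/mL)-treated filter disk carrying VEGF at 20 ng/CAM was placed on vessels. Compounds in DMSO/PBS were applied at several concentrations for 3 days; blood vessel number under the disk was counted by stereomicroscopy.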

[2] = system: TNBS-induced colitis; assay: TNBS-induced colitis model of inflammatory bowel disease; assay type: in vivo, rat (Sprague Dawley)
Excerpt: To see alleviating effects of the compounds of the present invention on colitis, an animal model induced by TNBS and having colitis was used for the experiments. The animal used herein was a 7 to 8 week Sprague Dawley species purchased from Samtaco Bio Korea. After the purchase, the animal was stabilized with typical solid feed for 2 days before being used for the experiments. The animal was freely supplied with feed and water during the experiments, and stayed in conditions maintaining a cage temperature of about 25±1° C. and relative humidity of about 50±10%. The cage was equipped with an automatic lightening system to adjust 12-hour light-dark cycle.
In regard to the experimental groups, 5 groups (i.e., a control group, a group administered with TNBS only, […], […], […]) were used according to the randomized block design, wherein each group consists of 6 rats having an average weight of about 180±10 g. The rats that had been fasting for 24 hours were anesthetized with diethylether (Et2O), and then, a 1 mL syringe connected with a polyethylene catheter was used to slowly inject 0.8 mL of 3% TNBS into colonic enema through the anus, wherein TNBS was diluted with 50% (v/v) ethanol. To prevent leakage of 3% TNBS from the anus, the rats turned upside down and let stand for 60 minutes.
In regard to the control group, only a vehicle (50% (v/v) ethanol) was injected into the rats of the control group in the same manner as in preparation of other experimental groups. To examine the effects of the drug, after being fasting for 24 hours, the rats were administered with drugs, i.e., 0.1 mg/kg or 1.0 mg/kg of Compounds 8a and 8j, once a day at a certain time from the second day to the fifth day of the TNBS treatment. As a comparative experimental material, 5-ASA, which is an active metabolite of sulfasalazine that is the most well-known as a therapeutic agent for IBDs, was used as a positive control group.
All the rats were scarified on the seventh day of the TNBS administration. […] After the large intestine of the rat was harvested, a 5 to 6 cm-long tissue from was cut from the anus to a size of 1 cm, and then, subjected to measure an intestine weight and activation of myeloperoxidase (MPO) in the tissue, and to perform a biopsy. In addition, changes in weight of all the animals used in the experiments were observed by using a digital mass meter, beginning from the fasting step, the TNBS administration, and the drug administration. In consideration of the management and use of laboratory animals, the animal experiments were followed according to institutional guidelines from Laboratory Animal Resources, Yeungnam University.
To measure the activation of MPO, an MPO assay was used. The colorectal tissue was washed with cold PBS, and a weight thereof was measured. Then, 200 μL of lysis buffer (pH7.4, 200 mM NaCl, 5 mM EDTA, 10 mM Tris, 10% glycerol) was added for each 10 mg of the weight of the tissue, and then, the tissue homogenizer (Bio homogenizer M133, BIOSPEC PRODUCTS Inc. USA) was used for 30 seconds in terms of homogenization. The homogenized sample was subjected to centrifugation (1500×g) twice, each for 15 minutes. The supernatant obtained therefrom was used to measure the activation of MPO by using the MPO ELISA kit (HK210, Hycult Biotechnology, Netherlands). 100 μL of the supernatant was added to the 96-well plates, each of which well was coated with an anti-mouse MPO antibody, to allow a reaction at room temperature for 1 hour, followed by being washed with PBS three times. Here, 100 μL of a reconstituted tracer was added thereto to allow a reaction at room temperature for 1 hour, followed by being washed three times repeatedly. Then, 100 μL of a reptavidin-peroxidase conjugate was added thereto to allow a reaction at room temperature for 1 hours, followed being washed. Then, 100 μL of a TMB substrate solution was added thereto to allow a reaction for 30 minutes. […]

Compound	inhibition in vivo at 0.01 nmol/CAM [1]	ID50 against inhibition of angiogenesis [1]	changes in weights of the rat ([2]; 1.0 mg/kg once a day, TNBS-induced rats)	conditions of the large intestine observed with the naked eye ([2]; 1.0 mg/kg, TNBS-induced rats)	weight of the large intestine ([2]; 1.0 mg/kg, vs TNBS-treated group)	activation of myeloperoxidase (MPO) in colorectal tissue ([2]; 1.0 mg/kg, vs group treated with TNBS only)
CCCCCCCCCCCC(=O)Nc1nc(C)c(O)c(C)c1C [Compound 8b, N-(5-hydroxy-3,4,6-trimethylpyridine-2-yl)dodecanamide]	59.3 ± 5.4%	5.0 pg/CAM and 14.9 fmol/CAM	–	–	–	–
CC(=O)Nc1nc(C)c(O)c(C)c1C [Compound 8a, N-(5-hydroxy-3,4,6-trimethylpyridine-2-yl)acetamide]	84.8 ± 10%	1.7 pg/CAM and 8.7 fmol/CAM	excellent recovery of the weight compared to the group treated with 5-ASA	excellent inhibitory effects on swelling and congestion	significantly decreased	lower activation of MPO
